Test results reported in ChEMBL document CHEMBL1938230, “6-Position optimization of tricyclic 4-quinolone-based inhibitors of glycogen synthase kinase-3β: discovery of nitrile derivatives with picomolar potency” (Bioorg Med Chem Lett, 2012).

How the values were obtained:
[1] = biological target: Tyrosine-protein kinase BTK (Homo sapiens) (UniProt Q06187); assay: Inhibition of human BTK in HL-60 cells lysate assessed as reduction of labeling of acyl-phosphate ATP probe at 100 nM; assay type: cell-free
Tyrosine-protein kinase BTK (Homo sapiens), sequence (Q06187 whole entry): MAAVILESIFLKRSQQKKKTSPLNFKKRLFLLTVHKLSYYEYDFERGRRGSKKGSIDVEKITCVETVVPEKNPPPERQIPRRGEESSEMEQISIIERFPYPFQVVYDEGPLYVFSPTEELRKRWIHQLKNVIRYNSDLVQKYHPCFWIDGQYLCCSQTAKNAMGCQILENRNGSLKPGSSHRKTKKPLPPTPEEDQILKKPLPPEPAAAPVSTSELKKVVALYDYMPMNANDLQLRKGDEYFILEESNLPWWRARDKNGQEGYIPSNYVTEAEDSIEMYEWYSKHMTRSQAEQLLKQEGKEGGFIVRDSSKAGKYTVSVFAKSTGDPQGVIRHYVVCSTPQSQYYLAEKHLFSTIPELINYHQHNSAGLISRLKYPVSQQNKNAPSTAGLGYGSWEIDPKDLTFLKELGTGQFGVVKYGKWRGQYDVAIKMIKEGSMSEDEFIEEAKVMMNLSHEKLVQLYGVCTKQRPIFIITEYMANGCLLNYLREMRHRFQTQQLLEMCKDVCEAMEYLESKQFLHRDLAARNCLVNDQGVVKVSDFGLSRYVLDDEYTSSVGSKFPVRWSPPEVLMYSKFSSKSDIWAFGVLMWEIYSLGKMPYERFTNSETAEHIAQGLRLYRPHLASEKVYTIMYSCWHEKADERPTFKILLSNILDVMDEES

[2] = biological target: Serine/threonine-protein kinase SMG1 (Homo sapiens) (UniProt Q96Q15); assay: Inhibition of human SMG1 in HL-60 cells lysate assessed as reduction of labeling of acyl-phosphate ATP probe at 100 nM; assay type: cell-free
[3] = biological target: Tyrosine-protein kinase ABL (Homo sapiens) (UniProt P00519+P42684); assay: Inhibition of human ABL/ARG in HL-60 cells lysate assessed as reduction of labeling of acyl-phosphate ATP probe at 100 nM; assay type: cell-free
[4] = biological target: Serine/threonine-protein kinase OSR1 (Homo sapiens) (UniProt O95747); assay: Inhibition of human OSR1 in HL-60 cells lysate assessed as reduction of labeling of acyl-phosphate ATP probe at 100 nM; assay type: cell-free
Serine/threonine-protein kinase OSR1 (Homo sapiens), sequence (O95747 2-527 limits assumed): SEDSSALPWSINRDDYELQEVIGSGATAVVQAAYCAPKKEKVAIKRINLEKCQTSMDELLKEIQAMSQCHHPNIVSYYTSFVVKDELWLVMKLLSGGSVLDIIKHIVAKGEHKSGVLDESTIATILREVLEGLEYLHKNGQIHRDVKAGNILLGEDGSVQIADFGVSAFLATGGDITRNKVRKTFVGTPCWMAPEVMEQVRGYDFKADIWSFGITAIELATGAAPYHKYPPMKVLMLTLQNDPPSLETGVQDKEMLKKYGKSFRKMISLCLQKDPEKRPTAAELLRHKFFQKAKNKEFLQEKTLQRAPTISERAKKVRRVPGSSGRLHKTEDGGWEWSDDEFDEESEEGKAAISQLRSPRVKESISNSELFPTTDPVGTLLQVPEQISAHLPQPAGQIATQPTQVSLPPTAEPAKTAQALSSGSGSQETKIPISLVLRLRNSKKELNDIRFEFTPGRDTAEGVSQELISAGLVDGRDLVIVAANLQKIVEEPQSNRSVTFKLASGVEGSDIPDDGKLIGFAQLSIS

[5] = biological target: T1, Serine/threonine-protein kinase Nek9 (Homo sapiens) (UniProt Q8TD19); assay: Inhibition of human NEK9 in HL-60 cells lysate assessed as reduction of labeling of acyl-phosphate ATP probe at 100 nM; assay type: cell-free
T1 sequence (whole entry): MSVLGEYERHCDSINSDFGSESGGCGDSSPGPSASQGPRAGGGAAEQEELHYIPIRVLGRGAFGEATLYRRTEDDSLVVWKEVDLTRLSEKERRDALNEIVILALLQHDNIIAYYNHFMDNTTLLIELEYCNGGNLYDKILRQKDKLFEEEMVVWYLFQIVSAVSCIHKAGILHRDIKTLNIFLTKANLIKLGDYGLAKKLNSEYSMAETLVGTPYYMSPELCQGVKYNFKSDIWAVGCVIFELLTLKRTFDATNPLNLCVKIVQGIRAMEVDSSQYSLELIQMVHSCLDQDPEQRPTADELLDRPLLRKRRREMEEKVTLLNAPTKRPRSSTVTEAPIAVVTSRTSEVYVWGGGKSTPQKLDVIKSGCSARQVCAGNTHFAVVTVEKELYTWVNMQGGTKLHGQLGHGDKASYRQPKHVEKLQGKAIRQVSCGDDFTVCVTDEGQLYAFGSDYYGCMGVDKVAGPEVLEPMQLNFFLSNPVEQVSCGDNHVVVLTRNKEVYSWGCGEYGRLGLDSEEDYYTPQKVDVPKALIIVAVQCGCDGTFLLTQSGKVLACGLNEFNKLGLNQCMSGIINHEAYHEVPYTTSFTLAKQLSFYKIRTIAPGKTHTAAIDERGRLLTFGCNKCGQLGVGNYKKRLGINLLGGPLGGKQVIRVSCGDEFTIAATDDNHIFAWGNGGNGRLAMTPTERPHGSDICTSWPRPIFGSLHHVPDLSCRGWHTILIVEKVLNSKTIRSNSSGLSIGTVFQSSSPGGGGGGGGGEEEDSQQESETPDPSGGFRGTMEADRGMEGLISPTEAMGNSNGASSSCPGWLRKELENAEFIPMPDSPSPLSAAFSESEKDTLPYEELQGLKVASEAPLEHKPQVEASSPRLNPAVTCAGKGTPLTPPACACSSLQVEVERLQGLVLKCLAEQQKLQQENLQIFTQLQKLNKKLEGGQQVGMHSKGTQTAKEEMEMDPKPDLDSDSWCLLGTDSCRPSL

HL-60 = assay: Inhibition of human Wnk1/Wnk2/Wnk3 in HL-60 cells lysate assessed as reduction of labeling of acyl-phosphate ATP probe at 100 nM
[6] = biological target: TRAF2 and NCK-interacting protein kinase (Homo sapiens) (UniProt Q9UKE5); assay: Inhibition of human ZC2/TNIK in HL-60 cells lysate assessed as reduction of labeling of acyl-phosphate ATP probe at 100 nM; assay type: cell-free
TRAF2 and NCK-interacting protein kinase (Homo sapiens), sequence (Q9UKE5 whole entry, looked up): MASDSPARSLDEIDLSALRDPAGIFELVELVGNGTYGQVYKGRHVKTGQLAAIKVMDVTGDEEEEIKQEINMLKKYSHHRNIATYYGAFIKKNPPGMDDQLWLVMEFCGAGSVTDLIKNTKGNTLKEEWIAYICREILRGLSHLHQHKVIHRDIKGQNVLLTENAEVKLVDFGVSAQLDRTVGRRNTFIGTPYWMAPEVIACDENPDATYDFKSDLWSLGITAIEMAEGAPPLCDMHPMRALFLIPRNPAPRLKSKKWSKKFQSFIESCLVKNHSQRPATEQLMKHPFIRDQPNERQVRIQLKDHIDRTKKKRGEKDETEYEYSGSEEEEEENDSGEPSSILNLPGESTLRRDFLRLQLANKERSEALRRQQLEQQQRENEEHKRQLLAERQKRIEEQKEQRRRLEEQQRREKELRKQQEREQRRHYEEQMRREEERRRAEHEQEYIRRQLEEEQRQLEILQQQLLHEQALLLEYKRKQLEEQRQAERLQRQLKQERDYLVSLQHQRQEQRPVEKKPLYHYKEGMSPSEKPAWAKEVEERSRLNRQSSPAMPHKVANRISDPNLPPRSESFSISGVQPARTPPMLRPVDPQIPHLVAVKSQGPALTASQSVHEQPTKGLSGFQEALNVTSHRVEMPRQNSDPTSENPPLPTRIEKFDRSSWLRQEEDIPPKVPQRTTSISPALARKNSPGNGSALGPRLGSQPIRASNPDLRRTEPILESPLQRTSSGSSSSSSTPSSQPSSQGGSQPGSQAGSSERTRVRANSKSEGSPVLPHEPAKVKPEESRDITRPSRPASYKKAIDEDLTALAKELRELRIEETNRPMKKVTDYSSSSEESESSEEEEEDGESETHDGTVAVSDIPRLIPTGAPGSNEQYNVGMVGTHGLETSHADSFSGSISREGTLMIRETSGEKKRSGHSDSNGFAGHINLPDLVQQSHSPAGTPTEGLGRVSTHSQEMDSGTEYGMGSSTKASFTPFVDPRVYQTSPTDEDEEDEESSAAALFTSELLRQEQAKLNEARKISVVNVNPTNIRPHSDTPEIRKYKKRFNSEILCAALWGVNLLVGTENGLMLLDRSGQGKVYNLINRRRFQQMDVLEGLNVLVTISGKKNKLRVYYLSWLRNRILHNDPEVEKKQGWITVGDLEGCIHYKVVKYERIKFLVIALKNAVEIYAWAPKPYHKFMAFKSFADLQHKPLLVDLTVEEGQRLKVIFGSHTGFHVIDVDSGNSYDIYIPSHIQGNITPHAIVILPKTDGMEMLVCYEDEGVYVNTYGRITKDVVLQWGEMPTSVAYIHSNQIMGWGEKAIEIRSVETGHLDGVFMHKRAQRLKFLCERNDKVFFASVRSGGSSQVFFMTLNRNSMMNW

[7] = biological target: Glycogen synthase kinase-3 beta (Homo sapiens, UniProt P49841); assay: Inhibition of human GSK3-beta in HL-60 cells lysate assessed as reduction of labelling of acyl-phosphate ATP probe at 100 nM; assay type: cell-free
[8] = biological target: Mitogen-activated protein kinase kinase kinase kinase 4 (Homo sapiens) (UniProt O95819); assay: Inhibition of human ZC1/HGK in HL-60 cells lysate assessed as reduction of labeling of acyl-phosphate ATP probe at 100 nM; assay type: cell-free
[9] = biological target: Dual specificity mitogen-activated protein kinase kinase 1 (Homo sapiens) (UniProt Q02750); assay: Inhibition of human MAP2K1 in HL-60 cells lysate assessed as reduction of labeling of acyl-phosphate ATP probe at 100 nM; assay type: cell-free
Dual specificity mitogen-activated protein kinase kinase 1 (Homo sapiens), sequence (Q02750 whole entry): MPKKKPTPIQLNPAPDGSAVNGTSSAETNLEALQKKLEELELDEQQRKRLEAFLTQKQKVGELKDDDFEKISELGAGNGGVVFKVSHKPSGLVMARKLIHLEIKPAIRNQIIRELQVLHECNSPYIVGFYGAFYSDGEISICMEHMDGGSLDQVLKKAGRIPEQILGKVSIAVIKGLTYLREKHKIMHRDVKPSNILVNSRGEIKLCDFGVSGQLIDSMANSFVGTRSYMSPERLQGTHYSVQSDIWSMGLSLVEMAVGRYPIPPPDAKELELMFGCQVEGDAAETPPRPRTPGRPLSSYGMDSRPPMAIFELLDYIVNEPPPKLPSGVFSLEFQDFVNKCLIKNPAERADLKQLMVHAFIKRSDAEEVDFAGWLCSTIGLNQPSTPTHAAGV

[10] = biological target: Mitogen-activated protein kinase 1 (Homo sapiens) (UniProt P28482); assay: Inhibition of human Erk2 in HL-60 cells lysate assessed as reduction of labeling of acyl-phosphate ATP probe at 100 nM; assay type: cell-free
Mitogen-activated protein kinase 1 (Homo sapiens), sequence (P28482 whole entry): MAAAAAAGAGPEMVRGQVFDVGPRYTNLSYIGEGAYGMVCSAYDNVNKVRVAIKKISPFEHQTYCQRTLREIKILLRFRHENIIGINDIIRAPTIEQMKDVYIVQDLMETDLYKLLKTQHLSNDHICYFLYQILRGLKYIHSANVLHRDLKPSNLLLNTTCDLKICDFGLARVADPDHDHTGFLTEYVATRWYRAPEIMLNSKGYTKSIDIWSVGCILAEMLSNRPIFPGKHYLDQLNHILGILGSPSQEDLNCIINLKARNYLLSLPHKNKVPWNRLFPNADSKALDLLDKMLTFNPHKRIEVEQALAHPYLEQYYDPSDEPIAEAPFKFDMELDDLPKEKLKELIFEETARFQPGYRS

[11] = biological target: Dual specificity mitogen-activated protein kinase kinase 2 (Homo sapiens) (UniProt P36507); assay: Inhibition of human MAP2K2 in HL-60 cells lysate assessed as reduction of labeling of acyl-phosphate ATP probe at 100 nM; assay type: cell-free
Dual specificity mitogen-activated protein kinase kinase 2 (Homo sapiens), sequence (P36507 whole entry): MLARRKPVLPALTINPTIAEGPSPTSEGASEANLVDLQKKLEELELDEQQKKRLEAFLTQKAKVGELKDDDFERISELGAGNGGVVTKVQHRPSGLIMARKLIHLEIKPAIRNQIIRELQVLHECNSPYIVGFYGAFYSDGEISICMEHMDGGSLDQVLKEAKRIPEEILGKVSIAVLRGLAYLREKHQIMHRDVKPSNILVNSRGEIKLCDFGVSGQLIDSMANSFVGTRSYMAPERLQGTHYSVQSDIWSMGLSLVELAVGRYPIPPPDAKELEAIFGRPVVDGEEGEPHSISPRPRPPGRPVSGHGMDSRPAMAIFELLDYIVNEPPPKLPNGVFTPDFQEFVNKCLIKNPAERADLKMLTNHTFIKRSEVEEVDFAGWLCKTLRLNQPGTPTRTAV

[12] = biological target: Cyclin-dependent kinase 5 (Homo sapiens) (UniProt Q00535); assay: Inhibition of human CDK5 in HL-60 cells lysate assessed as reduction of labeling of acyl-phosphate ATP probe at 100 nM; assay type: cell-free
Cyclin-dependent kinase 5 (Homo sapiens), sequence (Q00535 whole entry, looked up): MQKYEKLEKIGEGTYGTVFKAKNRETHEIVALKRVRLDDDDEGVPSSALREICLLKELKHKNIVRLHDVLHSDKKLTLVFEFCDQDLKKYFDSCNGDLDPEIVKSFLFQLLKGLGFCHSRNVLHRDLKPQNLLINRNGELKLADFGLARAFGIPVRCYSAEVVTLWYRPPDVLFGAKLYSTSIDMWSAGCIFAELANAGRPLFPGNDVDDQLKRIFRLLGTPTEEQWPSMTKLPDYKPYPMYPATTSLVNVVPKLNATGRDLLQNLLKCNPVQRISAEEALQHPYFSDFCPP

[13] = biological target: Wee1-like protein kinase (Homo sapiens) (UniProt P30291); assay: Inhibition of human Wee1 in HL-60 cells lysate assessed as reduction of labeling of acyl-phosphate ATP probe at 100 nM; assay type: cell-free
[14] = biological target: Tyrosine-protein kinase Lyn (Homo sapiens) (UniProt P07948); assay: Inhibition of human LYN in HL-60 cells lysate assessed as reduction of labeling of acyl-phosphate ATP probe at 100 nM; assay type: cell-free
Tyrosine-protein kinase Lyn (Homo sapiens), sequence (P07948 2-512 limits assumed): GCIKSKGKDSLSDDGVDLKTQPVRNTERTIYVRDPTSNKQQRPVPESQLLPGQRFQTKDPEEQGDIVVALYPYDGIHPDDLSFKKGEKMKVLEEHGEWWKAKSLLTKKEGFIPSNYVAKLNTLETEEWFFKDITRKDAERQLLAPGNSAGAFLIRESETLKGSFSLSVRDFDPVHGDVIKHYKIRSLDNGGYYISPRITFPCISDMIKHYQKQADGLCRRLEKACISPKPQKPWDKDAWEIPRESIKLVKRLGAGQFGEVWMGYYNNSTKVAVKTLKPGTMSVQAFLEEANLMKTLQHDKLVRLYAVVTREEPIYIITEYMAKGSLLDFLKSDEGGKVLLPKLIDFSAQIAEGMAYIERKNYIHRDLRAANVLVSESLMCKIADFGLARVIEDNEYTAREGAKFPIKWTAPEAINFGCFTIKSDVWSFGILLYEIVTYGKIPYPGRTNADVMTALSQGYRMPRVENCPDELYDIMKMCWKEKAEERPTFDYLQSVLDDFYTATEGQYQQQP

[15] = biological target: Cyclin-dependent kinase 17 (Homo sapiens) (UniProt Q00537); assay: Inhibition of human PCTAIRE2 in HL-60 cells lysate assessed as reduction of labeling of acyl-phosphate ATP probe at 100 nM; assay type: cell-free
Cyclin-dependent kinase 17 (Homo sapiens), sequence (Q00537 whole entry, looked up): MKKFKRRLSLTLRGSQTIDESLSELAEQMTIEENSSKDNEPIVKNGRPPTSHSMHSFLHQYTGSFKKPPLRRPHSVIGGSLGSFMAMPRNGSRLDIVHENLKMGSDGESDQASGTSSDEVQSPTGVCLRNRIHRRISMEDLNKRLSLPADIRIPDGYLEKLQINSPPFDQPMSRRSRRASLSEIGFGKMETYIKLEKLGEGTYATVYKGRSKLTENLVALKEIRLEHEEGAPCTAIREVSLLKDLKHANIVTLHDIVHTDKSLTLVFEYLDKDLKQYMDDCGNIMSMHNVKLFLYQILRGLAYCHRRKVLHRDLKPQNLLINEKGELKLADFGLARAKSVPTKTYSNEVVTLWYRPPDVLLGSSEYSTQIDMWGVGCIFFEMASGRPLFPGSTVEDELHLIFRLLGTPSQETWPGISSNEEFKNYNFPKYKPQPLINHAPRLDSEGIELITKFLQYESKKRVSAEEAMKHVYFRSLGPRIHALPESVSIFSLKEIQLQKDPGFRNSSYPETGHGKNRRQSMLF

[16] = biological target: Interferon-induced, double-stranded RNA-activated protein kinase (Homo sapiens) (UniProt P19525); assay: Inhibition of human PKR in HL-60 cells lysate assessed as reduction of labeling of acyl-phosphate ATP probe at 100 nM; assay type: cell-free

inhibition [1]	inhibition [2]	inhibition [3]	inhibition [4]	inhibition [6]	inhibition [7]	inhibition [8]	inhibition [9]	inhibition [10]	inhibition [11]	inhibition [12]	inhibition [13]	inhibition [14]	inhibition [15]	inhibition [16]	Compound	inhibition [5]	inhibition at 0.1 µM (HL-60)
< 35%	< 35%	< 35%	< 35%	< 35%	> 99.5%	< 35%	< 35%	< 35%	< 35%	< 35%	< 35%	< 35%	< 35%	< 35%	C[C@H]1COc2c(NCCCc3ccccn3)c(F)c(N)c3c(=O)c(C#N)cn1c23	< 35%	< 35%
< 35%	< 35%	< 35%	< 35%	< 35%	87.8%	< 35%	< 35%	< 35%	< 35%	< 35%	< 35%	< 35%	< 35%	< 35%	C[C@H]1COc2c(NCCCn3cccn3)c(F)c(N)c3c(=O)c(C(=O)O)cn1c23	< 35%	< 35%
< 35%	< 35%	< 35%	< 35%	< 35%	99.2%	< 35%	< 35%	< 35%	< 35%	< 35%	< 35%	< 35%	< 35%	< 35%	C[C@H]1COc2c(NCCCn3cccn3)c(F)c(N)c3c(=O)c(C#N)cn1c23	< 35%	< 35%
< 35%	< 35%	< 35%	< 35%	< 35%	82.9%	< 35%	< 35%	< 35%	< 35%	< 35%	< 35%	< 35%	< 35%	< 35%	C[C@H]1COc2c(NCCCc3ccccn3)c(F)c(N)c3c(=O)c(C(=O)O)cn1c23	< 35%	< 35%
